Test results taken from PubChem BioAssay AID330 (DTP/NCI, 2004).
Where “and” joins values, the source holds several entries; their conditions need not be identical. Equal values may be shown once. Inconclusive results and toxic doses are left out. Rule for the calls: active = survival T/C of 150% or more; inactive = T/C below 125% in these data.

Tested on: P388 leukemia ip, CD2F1 mice, survival T/C
Experiment: NCI In Vivo Anticancer Drug Screen. Data for tumor model P388 Leukemia (intraperitoneal) in CD2F1 (CDF1) mice
Details: endpoint: median survival time, higher = longer survival
Method in brief: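 Mice carrying the transplanted tumor received test compound or vehicle. Survival was recorded in each group, and the value is the treated-group measurement divided by that of the vehicle-treated control group.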

[1] = dose: 0.1 mg/kg/injection, schedule: Q01DX009 (ip), vehicle: water
[2] = dose: 50.0 mg/kg/injection, schedule: Q01DX009 (ip), vehicle: Klucel (hydroxypropylcellulose) (HPC)
[3] = dose: 100.0 mg/kg/injection, schedule: Q01DX009 (ip), vehicle: Klucel (hydroxypropylcellulose) (HPC)
[4] = dose: 50.0 mg/kg/injection, schedule: Q01DX005 (ip), vehicle: Klucel (hydroxypropylcellulose) (HPC)
[5] = dose: 100.0 mg/kg/injection, schedule: Q01DX005 (ip), vehicle: Klucel (hydroxypropylcellulose) (HPC)
[6] = dose: 50.0 mg/kg/injection, schedule: Q01DX009 (ip), vehicle: saline with Tween-80
[7] = dose: 100.0 mg/kg/injection, schedule: Q01DX009 (ip), vehicle: saline with Tween-80
[8] = dose: 200.0 mg/kg/injection, schedule: Q01DX009 (ip), vehicle: saline with Tween-80

Measured: T/C

COC(=O)C(NC(=O)C(NC(=O)c1c2nc3c(C(=O)NC(C(=O)NC(C(=O)OC)C(C)C)C(C)O)ccc(C)c3oc-2c(C)c(=O)c1N)C(C)O)C(C)C (stereo not given)
inactive: dose: 0.05 mg/kg/injection, schedule: Q01DX009 (ip), vehicle: water 117 % of control | [1] 101 % of control | dose: 0.2 mg/kg/injection, schedule: Q01DX009 (ip), vehicle: water 99 % of control | dose: 0.4 mg/kg/injection, schedule: Q01DX009 (ip), vehicle: water 100 % of control | dose: 0.8 mg/kg/injection, schedule: Q01DX009 (ip), vehicle: water 99 % of control | dose: 1.6 mg/kg/injection, schedule: Q01DX009 (ip), vehicle: water 102 % of control and 90 % of control | dose: 3.2 mg/kg/injection, schedule: Q01DX009 (ip), vehicle: water 92 % of control | dose: 6.4 mg/kg/injection, schedule: Q01DX009 (ip), vehicle: water 99 % of control | dose: 12.8 mg/kg/injection, schedule: Q01DX009 (ip), vehicle: water 101 % of control

O=C1CSC(c2ccccc2)N1c1nncs1 (stereo not given)
inactive: dose: 30.0 mg/kg/injection, schedule: Q01DX005 (ip), vehicle: Klucel (hydroxypropylcellulose) (HPC) 100 % of control | dose: 60.0 mg/kg/injection, schedule: Q01DX005 (ip), vehicle: Klucel (hydroxypropylcellulose) (HPC) 101 % of control | dose: 120.0 mg/kg/injection, schedule: Q01DX005 (ip), vehicle: Klucel (hydroxypropylcellulose) (HPC) 101 % of control | dose: 240.0 mg/kg/injection, schedule: Q01DX005 (ip), vehicle: Klucel (hydroxypropylcellulose) (HPC) 103 % of control

CCOc1ccc(C[Se][Se]Cc2ccc(OCC)cc2)cc1
inactive: [2] 109 % of control | [3] 91 % of control

O=CN(c1ccccc1)c1ccccc1
inactive: dose: 50.0 mg/kg/injection, schedule: Q01DX009 (ip), vehicle: other 95 % of control | dose: 50.0 mg/kg/injection, schedule: Q04DX003 (ip), vehicle: saline with Tween-80 107 % of control | dose: 100.0 mg/kg/injection, schedule: Q01DX009 (ip), vehicle: other 90 % of control | dose: 100.0 mg/kg/injection, schedule: Q04DX003 (ip), vehicle: other 91 % of control | dose: 100.0 mg/kg/injection, schedule: Q04DX003 (ip), vehicle: saline with Tween-80 109 % of control | dose: 200.0 mg/kg/injection, schedule: Q01DX009 (ip), vehicle: other 90 % of control | dose: 200.0 mg/kg/injection, schedule: Q04DX003 (ip), vehicle: other 87 % of control | dose: 200.0 mg/kg/injection, schedule: Q04DX003 (ip), vehicle: saline with Tween-80 110 % of control | dose: 400.0 mg/kg/injection, schedule: Q01DX009 (ip), vehicle: other 100 % of control | dose: 400.0 mg/kg/injection, schedule: Q04DX003 (ip), vehicle: other 87 % of control | dose: 400.0 mg/kg/injection, schedule: Q04DX003 (ip), vehicle: saline with Tween-80 110 % of control | dose: 800.0 mg/kg/injection, schedule: Q04DX003 (ip), vehicle: saline with Tween-80 97 % of control

CC(=O)NC(C)(C(C)=O)c1ccccc1 (stereo not given)
inactive: dose: 60.0 mg/kg/injection, schedule: Q01DX005 (ip), vehicle: saline 102 % of control | dose: 120.0 mg/kg/injection, schedule: Q01DX005 (ip), vehicle: saline 107 % of control | dose: 240.0 mg/kg/injection, schedule: Q01DX005 (ip), vehicle: saline 110 % of control

COC1=CC(=O)C(O)=C/C1=C\C=C\c1ccccc1
inactive: dose: 2.5 mg/kg/injection, schedule: Q01DX009 (ip), vehicle: saline with Tween-80 107 % of control | dose: 5.0 mg/kg/injection, schedule: Q01DX009 (ip), vehicle: saline with Tween-80 104 % of control | dose: 10.0 mg/kg/injection, schedule: Q01DX009 (ip), vehicle: saline with Tween-80 110 % of control

O=C1CCN=C2C(=O)c3ccccc3C(O)=C12
inactive: dose: 25.0 mg/kg/injection, schedule: Q01DX009 (ip), vehicle: Klucel (hydroxypropylcellulose) (HPC) 115 % of control | [2] 123 % of control | [3] 121 % of control

CC(=O)CC1(O)C(=O)Nc2ccc(Br)cc21 (stereo not given)
inactive: [2] 100 % of control | [3] 108 % of control | dose: 200.0 mg/kg/injection, schedule: Q01DX009 (ip), vehicle: Klucel (hydroxypropylcellulose) (HPC) 92 % of control

Cn1cnc([N+](=O)[O-])c1SCC(N)C(=O)O (stereo not given)
inactive: [4] 94 % of control | [5] 94 % of control | dose: 200.0 mg/kg/injection, schedule: Q01DX005 (ip), vehicle: Klucel (hydroxypropylcellulose) (HPC) 94 % of control

c1ccc(-c2cc(-c3cc(-c4ccccn4)[nH]n3)n[nH]2)nc1
inactive: dose: 60.0 mg/kg/injection, schedule: Q01DX005 (ip), vehicle: saline + Tween-80 + alcohol 91 % of control | dose: 120.0 mg/kg/injection, schedule: Q01DX005 (ip), vehicle: saline + Tween-80 + alcohol 94 % of control | dose: 240.0 mg/kg/injection, schedule: Q01DX005 (ip), vehicle: saline + Tween-80 + alcohol 104 % of control

O=C1C2CCC(CC2)C1C(c1ccccc1)c1ccccc1 (stereo not given)
inactive: [6] 93 % of control | [7] 91 % of control | [8] 90 % of control

Cc1nn(C(N)=S)c(C)c1N=Nc1ccc(F)cc1
inactive: dose: 25.0 mg/kg/injection, schedule: Q01DX005 (ip), vehicle: Klucel (hydroxypropylcellulose) (HPC) 96 % of control | [4] 102 % of control | [5] 90 % of control

CC1OC2CC(O)C1(O)C1=C2C(O)=C(C(N)=O)C(=N)C1=O (stereo not given)
inactive: dose: 0.01 mg/kg/injection, schedule: Q01DX009 (ip), vehicle: water 99 % of control | dose: 0.03 mg/kg/injection, schedule: Q01DX009 (ip), vehicle: water 100 % of control | dose: 0.07 mg/kg/injection, schedule: Q01DX009 (ip), vehicle: other 95 % of control | [1] 100 % of control | dose: 0.15 mg/kg/injection, schedule: Q01DX009 (ip), vehicle: other 98 % of control | dose: 0.3 mg/kg/injection, schedule: Q01DX009 (ip), vehicle: water 100 % of control | dose: 0.31 mg/kg/injection, schedule: Q01DX005 (ip), vehicle: saline 104 % of control | dose: 0.31 mg/kg/injection, schedule: Q01DX009 (ip), vehicle: other 107 % of control | dose: 0.62 mg/kg/injection, schedule: Q01DX005 (ip), vehicle: saline 104 % of control | dose: 0.62 mg/kg/injection, schedule: Q01DX009 (ip), vehicle: other 101 % of control | dose: 1.0 mg/kg/injection, schedule: Q01DX009 (ip), vehicle: water 90 % of control | dose: 1.25 mg/kg/injection, schedule: Q01DX005 (ip), vehicle: saline 104 % of control | dose: 1.25 mg/kg/injection, schedule: Q01DX009 (ip), vehicle: other 103 % of control | dose: 2.5 mg/kg/injection, schedule: Q01DX005 (ip), vehicle: saline 104 % of control | dose: 2.5 mg/kg/injection, schedule: Q01DX009 (ip), vehicle: other 113 % of control | dose: 3.0 mg/kg/injection, schedule: Q01DX009 (ip), vehicle: water 100 % of control | dose: 5.0 mg/kg/injection, schedule: Q01DX005 (ip), vehicle: saline 101 % of control

CC(=O)CC(C)(C)c1ccccc1
inactive: dose: 25.0 mg/kg/injection, schedule: Q01DX009 (ip), vehicle: saline with Tween-80 106 % of control | [6] 104 % of control | [7] 107 % of control and 108 % of control | [8] 103 % of control and 116 % of control | dose: 400.0 mg/kg/injection, schedule: Q01DX009 (ip), vehicle: saline with Tween-80 113 % of control and 95 % of control

O=[N+]([O-])c1ccc(/C(=C/c2ccc(F)cc2)S(=O)(=O)c2ccccc2)o1
inactive: dose: 50.0 mg/kg/injection, schedule: Q01DX009 (ip), vehicle: suspension in saline 97 % of control | dose: 100.0 mg/kg/injection, schedule: Q01DX009 (ip), vehicle: suspension in saline 88 % of control
